Laboratory results published in ChEMBL document CHEMBL3390840, “Expanding the horizon of chemotherapeutic targets: From MDM2 to MDMX (MDM4)” (Medchemcomm, 2011).

Experiments:
[1] = target: MDMX (Homo sapiens, UniProt O15151); assay: Inhibition of human recombinant MDMX (1 to 185) after 30 mins by fluorescence polarization assay
[2] = target: T1, Protein Mdm4 (Homo sapiens, UniProt O15151); assay: Inhibition of human full length GST-tagged MDMX expressed in Escherichia coli TG1 after 15 mins by ELISA
T1 sequence (O15151 whole entry): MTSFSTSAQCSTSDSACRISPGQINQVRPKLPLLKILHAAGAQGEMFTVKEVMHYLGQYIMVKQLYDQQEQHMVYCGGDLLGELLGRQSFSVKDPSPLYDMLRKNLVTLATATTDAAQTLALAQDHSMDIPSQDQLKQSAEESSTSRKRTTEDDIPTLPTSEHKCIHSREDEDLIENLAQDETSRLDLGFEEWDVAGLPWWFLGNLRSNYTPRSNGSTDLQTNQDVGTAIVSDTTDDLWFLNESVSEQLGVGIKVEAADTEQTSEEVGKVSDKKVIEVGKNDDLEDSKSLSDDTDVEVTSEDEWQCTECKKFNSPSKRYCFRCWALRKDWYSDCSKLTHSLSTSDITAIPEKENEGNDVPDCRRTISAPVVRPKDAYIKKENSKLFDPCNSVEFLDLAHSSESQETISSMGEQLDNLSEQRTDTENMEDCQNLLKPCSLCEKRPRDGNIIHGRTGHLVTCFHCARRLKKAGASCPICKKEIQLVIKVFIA

[3] = target: E3 ubiquitin-protein ligase Mdm2 (Homo sapiens, UniProt Q00987); assay: Inhibition of human full length GST-tagged MDM2 expressed in Escherichia coli TG1 after 15 mins by ELISA
E3 ubiquitin-protein ligase Mdm2, sequence (Q00987 whole entry): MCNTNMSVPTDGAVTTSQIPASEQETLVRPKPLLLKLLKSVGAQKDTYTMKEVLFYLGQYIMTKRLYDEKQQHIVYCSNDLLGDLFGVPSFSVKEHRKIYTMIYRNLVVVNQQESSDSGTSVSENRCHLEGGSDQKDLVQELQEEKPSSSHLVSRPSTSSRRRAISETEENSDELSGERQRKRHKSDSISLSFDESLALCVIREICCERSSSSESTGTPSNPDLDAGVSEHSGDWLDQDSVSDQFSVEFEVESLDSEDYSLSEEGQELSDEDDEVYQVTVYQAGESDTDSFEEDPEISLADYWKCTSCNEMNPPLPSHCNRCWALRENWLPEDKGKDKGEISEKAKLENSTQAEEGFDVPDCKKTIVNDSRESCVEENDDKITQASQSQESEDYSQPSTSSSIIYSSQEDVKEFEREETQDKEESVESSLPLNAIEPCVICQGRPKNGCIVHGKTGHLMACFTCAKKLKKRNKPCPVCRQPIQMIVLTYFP

EC50 [1] | IC50 [2] | IC50 [3] | Compound
840 nM | – | – | CCOc1cc(/C=C2\C(=O)N(c3ccccc3)N=C2C)cc(Cl)c1OCC(=O)OC
– | 1650 nM | 150 nM | H-MPRFMDYWEGLN-OH
